Source: US10195254B2, “Myristoylated leptin-related peptides and uses thereof” (ALBANY MEDICAL COLLEGE, priority 2014, dated 2019)
Where two headings read alike, the source gives them in different places. Where a SMILES comes first, the peptide text is derived from it. Where no end group is shown, it is not given here. [ ]: non-standard residue; d: D form. The star is where a group is joined. Myristoyl = CCCCCCCCCCCCCC(=O)*

What was measured:
[1] = mouse, in vivo
Protocol: (§5) Three to four week-old male Swiss Webster mice weighing between 12 and 15 g were obtained from Charles River Laboratories (Troy, N.Y., USA). The animals were housed three per cage in polycarbonate cages fitted with stainless steel wire lids and air filters, and supported on ventilated racks (Thoren Caging Systems, Hazelton, Pa., USA) in the Albany Medical College Animal Resources Facility. The mice were maintained at a constant temperature (24° C.) with lights on from 07:00 to 19:00 h, and allowed food and water ad libitum until used for uptake studies.
(§6) For oral and intranasal delivery, MA-[D-Leu-4]-OB3 was dissolved in 0.3% Intravail® (Aegis Therapeutics, San Diego, Calif., USA) reconstituted in sterile deionized water at a concentration of 0.1 mg/100 μL and 0.1 mg/10 μL, respectively. At time zero (0), a single 200 μl SC, IM, or IP injection of mouse MA-[D-Leu-4]-OB3 was given to each of three mice per time point. Intranasal delivery was achieved by lightly anesthetizing the mice with isoflurane (1-4%) and delivering 10 μl of MA-[D-Leu-4]OB3 into the nares using a Gilson® P-20 pipettor. Following peptide administration, the mice were transferred to separate cages for the designated time period.
(§7) One, two, four, six, 18, and 24 h after peptide delivery, the mice were anesthetized with isoflurane (5%) and exsanguinated by cardiac puncture. The blood was collected in sterile non-heparinized plastic centrifuge tubes and allowed to stand at room temperature for 1 h. The clotted blood was rimmed from the walls of the tubes with sterile wooden applicator sticks. Individual serum samples were prepared by centrifugation for 30 min at 2600×g in an Eppendorf 5702R, A-4-38 rotor (Eppendorf North America, Westbury, N.Y., USA), pooled by time point, and stored frozen until assayed for MA-[D-Leu-4]OB3 content.
(§8) MA-[D-Leu-4]-OB3 concentrations in the pooled serum samples were measured with a competitive ELISA, developed and validated by the present inventors, with the following modification: MA-[D-Leu-4]-OB3 was used to construct the standard curve. Cross-reactivity of MA-[D-Leu-4]-OB3 with the polyclonal antibody to [D-Leu-4]-OB3 used in the ELISA was 100%. Each serum sample was assayed in duplicate. Intra- and inter-assay coefficients of variation were 0.03% and 0.2%, respectively.
(§9) Serum concentrations of MA-[D-Leu-4]OB3 vs. time following SC, IP, IM, oral, or intranasal delivery were plotted using the graphics program SigmaPlot 8.0 (SPSS Science, Chicago, Ill., USA). The area under each curve (AUC) was calculated with a function of this program, and expressed as ng/ml/min.
(§10) The period of time required for the serum concentration of MA-[D-Leu-4]OB3 to be reduced to exactly one-half of the maximum concentration achieved following IP, SC, IM, oral, and intranasal administration was calculated using the following formula: t1/2=0.693/kelim
(§11) where kelim represents the elimination constant, determined by plotting the natural log of each of the concentration points in the beta phase of the uptake profiles against time.

[2] = Body weight gain, food and water intake in STZ-induced hyperglycemic mice; type: in vivo, male Swiss Webster mice
Protocol: (§1) Streptozotocin (STZ)-induced male Swiss Webster mice were used in these studies to examine the effects of MA-[D-Leu-4]-OB3 on body weight gain and insulin sensitivity in an insulin-deficient mouse model of diabetes. Using this model, the insulin sensitizing effects of MA-[D-Leu-4]-OB3 was compared with those of another well-characterized insulin-sensitizing drug, metformin.
(§2) Seven-week old male Swiss Webster mice were rendered hyperglycemic with a single intraperitoneal (ip) dose of 150 mg/kg STZ. Fasting blood glucose levels were measured prior to STZ treatment to establish normal (non-diabetic) glucose levels, and every day thereafter to assess hyperglycemia. Fasting blood glucose levels were routinely 3- to 4-fold higher than normal 4-5 days after STZ treatment.
(§3) Detemir insulin (Levemir®, Novo Nordisk, Malov, Denmark) delivery pens were used to dispense 0.025 U/100 μL phosphate buffered saline (PBS), and delivered by subcutaneous (sc) injection twice daily between 8:00 and 9:00 a.m. and 4:00 and 5:00 p.m. for 14 days. MA-[D-Leu-4]-OB3 (NeoBiolab, Cambridge, Mass.) and metformin (Sigma Aldrich, St. Louis, Mo.) were dissolved in 0.3% dodecyl maltoside (DDM, Intravail®, Aegis Therapeutics, San Diego, Calif.) reconstituted in sterile deionized water, and delivered twice daily by oral gavage between 8:00 h and 9:00 h and 16:00 h and 17:00 h at a concentration of 5 mg/kg/100 μL or 100 mg/kg/100 uL, respectively, for 14 days.
(§4) On day zero and each day thereafter, food and water intake were measured, and the mice were weighed in the morning between 8:00 h and 9:00 h. To assure fasting (8 hour) glucose levels on the days blood glucose was measured, food was removed from the cages between 8:00 h and 9:00 h and replaced immediately after measurement.

[3] = tested on: male BKS.Cg-Dock7m+/+Leprdb/J diabetic db/db mice; test: Fasting blood glucose in db/db mice after oral delivery in PBS or 0.3% DDM; type: in vivo; settings: oral gavage once daily
Protocol: Studies comparing the effects of oral delivery of myristic acid-conjugated [D-Leu-4]-OB3 in PBS or 0.3% dodecyl maltoside (DDM, Intravail®) on fasting blood glucose in six to seven week-old male BKS.Cg-Dock7^m+/+Lepr^db/J diabetic db/db mice.
Male db/db mice were given increasing concentrations of MA-[D-Leu-4]-OB3 in either PBS or DDM orally by gavage once daily in the evening for 14 consecutive days. Fasting (8 hours) blood glucose levels were measured every other day using an Accu-Chek Nano glucose meter (Roche, Indianapolis, Ind.).

[4] = tested on: STZ-induced hyperglycemic male Swiss Webster mice; test: Fasting blood glucose in STZ-induced hyperglycemic mice; type: in vivo
Protocol: as §1, §2, §3, §4

[5] = mouse, in vivo; remark: listed apart in the source
Protocol: as §5, §6, §7, §8, §9, §10, §11

[6] = in vivo, cited from earlier work

## CCCCCCCCCCCCCC(=O)N[C@@H](CO)C(=O)N[C@@H](CS)C(=O)N[C@@H](CO)C(=O)N[C@H](CC(C)C)C(=O)N1CCC[C@H]1C(=O)N[C@@H](CCC(N)=O)C(=O)N[C@H](C(N)=O)[C@@H](C)O [MA-[D-Leu-4]-OB3] (Myristoyl-SCS[dL]PQT-NH2)
[1]
  period of absorption: 2 to 6 h
  relative bioavailability: 5.3
[1]; im, 0.1 mg
  Plasma CL: 0.12 mL/min
  clearance: 0.12 mL/min
  t1/2: 5.9 h
[1]; inhaled or intranasal
  reduction of Cmax: 80%
  relative bioavailability: 1.0
[1]; inhaled or intranasal, 0.1 mg
  Plasma CL: 0.63 mL/min
  Vd: 447.0 mL
  clearance: 0.63 mL/min
[1]; ip
  relative bioavailability: 7.7
[1]; ip, 0.1 mg
  Clearance from the plasma: 0.08 mL/min
  Vd: 30.9 mL
  clearance: 0.0798 mL/min
  t1/2: 4.5 h
[1]; po
  reduction of Cmax: 31%
  relative bioavailability: 1.8
[1]; po, 0.1 mg
  Plasma CL: 0.36 mL/min
  Vd: 900.8 mL
  clearance: 0.36 mL/min
[1]; sc
  relative bioavailability: 11.7
[1]; sc, 0.1 mg
  Plasma CL: 0.05 mL/min
  Vd: 8.6 mL
  clearance: 0.05 mL/min
[2]
  heavier at the end of the 14-day test period (body weight gain): 8.1%
[2]; 14 days
  Cumulative food intake: 103.3 ± 2.3 gm/mouse
  Cumulative water intake: 452.5 ± 6.4 mL/mouse
[2]; after 14 days
  body weight % of initial: 108.1%
  body weight Change: +2.0 gm
[2]; after 14 days twice daily: MA-[D-Leu-4]-OB3 5 mg/kg oral, metformin 100 mg/kg oral, insulin 0.025 U sc
  Final body weight: 26.8 ± 1.6 gm
[2]; baseline, STZ mice
  Initial body weight: 24.8 ± 1.4 gm
[3]; 100 or 250 mcg/day in 0.3% DDM, 14 days
  fasting blood glucose levels: significantly reduced
[3]; 250 mcg/day in 0.3% DDM, end of 14-day treatment
  fasting blood glucose levels: reduced to levels seen in non-diabetic BKS mice
[3]; 250 or 500 mcg/day in PBS, after 14 days
  fasting blood glucose levels: unchanged from those in control mice receiving PBS alone
[4]; 14 day study, combination: within two days and throughout the study
  effect on fasting blood glucose levels: very little effect
[4]; after 14 days
  blood glucose % of initial: 98.8%
  blood glucose Change: -6 mg/dL
[4]; baseline, fasting
  Initial blood glucose: 507.0 ± 6.0 mg/dL
[4]; end of 14-day test period versus beginning
  reduction of fasting blood glucose levels: 1.2%
[4]; fasting, after 14 days twice daily: MA-[D-Leu-4]-OB3 5 mg/kg oral, metformin 100 mg/kg oral, insulin 0.025 U sc
  Final blood glucose: 501.0 ± 12.3 mg/dL
[4]; on a mass basis, 10 mg/kg/day vs. 200 mg/kg/day
  times more effective than metformin in improving insulin sensitivity: 20 times
[4]; on a molar basis
  times more effective than metformin in improving insulin sensitivity: 6.1 times
[5]; half-life
  half-life: ≤ 28 h
[5]; im, 0.1 mg
  AUC: 842 µg·h/mL
  Cmax: 89800 ng/mL
  Tmax: 2 h
[5]; im, 0.1 mg, t1/2
  half-life: 5.5 h
[5]; inhaled or intranasal, 0.1 mg
  AUC: 158 µg·h/mL
  Cmax: 10000 ng/mL
  Tmax: 6 h
[5]; inhaled or intranasal, 0.1 mg, t1/2
  half-life: 8.2 h
[5]; ip, 0.1 mg
  AUC: 1210 µg·h/mL
  Tmax: 2 h
[5]; ip, 0.1 mg, t1/2
  half-life: 4.1 h
[5]; po, 0.1 mg
  AUC: 278 µg·h/mL
  Cmax: 14400 ng/mL
  Tmax: 4 h
[5]; po, 0.1 mg, t1/2
  half-life: 28.9 h
[5]; sc, 0.1 mg
  AUC: 1830 µg·h/mL
  Tmax: 2 h
[5]; sc, 0.1 mg, t1/2
  half-life: 2 h

## [D-Leu-4]-OB3: synthetic peptide amide with leptin-like activity that has the sequence SCSLPQT (SEQ ID NO:1); non-myristoylated comparator (SCS[dL]PQT-NH2)
[6]; im, 1 mg
  AUC: 1,481,060 ng/ml/min
  Cmax: 46,566 ng/ml
  Plasma CL: 0.68 mL/min
  Tmax: 0.083 h
  Vd: 29.4 mL
  t1/2: 0.6 h
[6]; inhaled or intranasal, 1 mg
  AUC: 4,336,963 ng/ml/min
  Plasma CL: 1.37 mL/min
  Vd: 15.4 mL
  t1/2: 0.683 h
[6]; ip, 1 mg
  AUC: 1,072,270 ng/ml/min
  Cmax: 22,519 ng/ml
  Tmax: 0.083 h
  Vd: 65.5 mL
  clearance: 0.93 mL/min
  t1/2: 0.817 h
[6]; po, 1 mg
  AUC: 552,710 ng/ml/min
  Cmax: 8,574 ng/ml
  Plasma CL: 1.81 mL/min
  Tmax: 0.833 h
  Vd: 47.9 mL
  t1/2: 0.333 h
[6]; sc, 1 mg
  AUC: 1,182,498 ng/ml/min
  Cmax: 35,063 ng/ml
  Plasma CL: 0.85 mL/min
  Tmax: 0.083 h
  Vd: 42.9 mL
  t1/2: 0.567 h
[6]
  period of absorption: 5 to 60 min
